Reference: patent US12649734B2, “Bioavailable protein disulfide isomerase inhibitors” (THE CLEVELAND CLINIC FOUNDATION, priority 2020, dated 2026)

Legend:
MM1.S cells = assay: RNA-seq gene expression profiling; type: cell-based, human; conditions: 3 μM, 6 h
Method: FIGS. 7A-7H provide graphs showing CCF642-34 is selective for PDIA1 inhibition-induced ER stress response pathway. MM1.S cells were treated with 3 μM of either CCF642 or CCF642-34 for 6 h, and gene expression analysis was performed by RNA sequencing. (A,B) Volcano plots showing CCF642-34 and CCF642 compared to DMSO control. The criteria for differential expression were at least a 2-fold change with p value less than 0.05. The analysis was performed in Originlab, Version 2019b (OriginLab Corporation, Northampton, MA, USA). […] The diagram was generated using a web-based bioinformatics server. (D,E) Hierarchical clusterings with heat map of MM1.S cells treated with vehicle CCF642-34 or CCF642 are shown for response to endoplasmic reticulum stress and unfolded protein response gene sets. (F-H) Heat maps of PERK and ATF6 target genes, Nrf2, and ER-associated degradation (ERAD) pathways are compared between control and inhibitor-treated MM1.S cells. Data analysis was performed using a web-based server and the Broad Institute Morpheus software.
RNA-seq and analysis: MM1.S cells were treated with 3 μM of either CCF642 or CCF642-34 for 6 h, and RNA was purified by using the NucleoSpin RNA kit (Takara Bio USA, Inc.; cat. #740955) according to the manufacturer's instruction. The RNA sequencings were completed as reported previously. Guan et al., Commun. Biol., 3, 1-13 (2020) The RNA-seq data were sub-mitted to the Gene Expression Omnibus (GEO) repository at the National Center for Biotechnology Information (NCBI) archives, with assigned GEO accession number GSE167097.

PDIA1 = PDIA1 (Homo sapiens, UniProt P07237); assay: PDIA1 activity assay, di-E-GSSG reduction (fluorescence); type: biochemical; set-up: His6 (6xHN, pET6xHN-N vector) (N); made in house; host or cells: Escherichia coli BL21 (DE3) NiCo; conditions: di-EGGS assay; read-out: inactivation constant, Kinact for PDIA1
Sequence of PDIA1 (P07237 18-508): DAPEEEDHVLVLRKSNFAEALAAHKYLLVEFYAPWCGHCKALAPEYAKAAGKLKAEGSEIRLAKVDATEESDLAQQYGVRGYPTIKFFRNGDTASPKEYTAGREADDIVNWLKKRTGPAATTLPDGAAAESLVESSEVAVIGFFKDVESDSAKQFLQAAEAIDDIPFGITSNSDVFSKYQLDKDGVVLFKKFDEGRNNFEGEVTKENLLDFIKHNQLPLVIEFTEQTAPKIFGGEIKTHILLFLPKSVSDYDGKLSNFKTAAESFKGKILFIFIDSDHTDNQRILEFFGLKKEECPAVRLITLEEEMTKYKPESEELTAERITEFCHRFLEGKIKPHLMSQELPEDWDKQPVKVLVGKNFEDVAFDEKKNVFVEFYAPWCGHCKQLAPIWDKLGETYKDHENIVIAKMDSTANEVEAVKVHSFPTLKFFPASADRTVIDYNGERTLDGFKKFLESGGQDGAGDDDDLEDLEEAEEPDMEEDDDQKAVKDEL
Method: PDI activity: All PDI activity assays were performed using two different substrates, insulin and di-eosin-diglutathione (di-E-GSSG) as described earlier (Vatolin et al., Ibid) with brief modifications. PDIA1 (1 μM) was incubated for 1 h with varying concentrations of PDIA1 inhibitors 642 or 642-34 (0.1, 03, 1, 5, 10, or 20 μM) in 100 mM sodium phosphate pH 7.0, 2 mM EDTA, and 1% DMSO. Bovine insulin (100 μM) and DTT (1 mM) were added to initiate the reaction. Kinetic readings were taken every minute for 2 h at 650 nm absorbance using a BioTek Synergy plate reader (BioTek Instruments, Inc., Winooski, VT, USA). For highly sensitive fluorescence-based assays, di-E-GSSG as a pseudo substrate was utilized to access the activity of PDIA1. Raturi, A.; Mutus, B., Free. Radic. Biol. Med., 43, 62-70 (2007) Known concentrations of recombinant PDIA1 were mixed with 10 mM GSH and incubated at 37° C. for 30 min in 150 mM K2HPO4/KH2PO4 (pH 7.1) buffer solution. PDI inhibitor was added into the mixture and incubated for an additional 30 min at 37° C. […] Synergy H1 plate reader (BioTek, WI, USA) was used for kinetic analysis using excitation at 518 nm, emission at 545 nm, reads of 0.1 sec/well every minute at 25° C. for 1 h. Baseline fluorescence was determined from di-E-GSSG reactions without PDI and GSH. […]

NC(CC1CNc2ccccc21)C(=O)NCCCOc1ccc(N2C(=O)/C(=C/c3ccc([N+](=O)[O-])s3)SC2=S)cc1 (centres unmarked) [CCF642-34]
TRIB3 upregulation compared to controls (MM1.S cells): ~20 fold | number of downregulated genes (MM1.S cells): 156 genes | number of upregulated genes (MM1.S cells): 206 genes | number of genes with changed expression compared to vehicle control (MM1.S cells; 2-fold change, p less than 0.05): 362 genes | KI (inactivation) (PDIA1): 88 ± 2.8 nM
